# Experimental data: ChEMBL document CHEMBL4359834 (J Med Chem, 2019)
# pIC50, pKd, pKi: −log10 of the molar value. Calls of active or inactive are those of the source. The rule behind the calls is not given here.
# Key:
# [1] = Inhibition of Class 1 PI3K/mTOR in human A2058 cells assessed as reduction in Akt phosphorylation at Ser473 residue incubated for 1 hr by InCell Western assay; assay type: cell-based; conditions: A2058, 1 h
# [2] = molecular target: T1, Phosphatidylinositol 4,5-bisphosphate 3-kinase catalytic subunit alpha isoform (Homo sapiens, UniProt P42336); experiment: Displacement of Alexafluor labelled kinase tracer314 from recombinant N-terminal His6-tagged PI3K p110alpha (unknown origin) incubated for 1 hr by FRET-based LanthaScreen Eu kinase binding assay
# [3] = molecular target: Serine/threonine-protein kinase mTOR (Homo sapiens, UniProt P42345); experiment: Displacement of Alexafluor labelled kinase tracer314 from recombinant human C-terminal GST-tagged mTOR (1360 to 2549 amino acids) expressed in insect cells incubated for 1 hr by FRET-based LanthaScreen Eu kinase binding assay
# [4] = molecular target: Phosphatidylinositol 4,5-bisphosphate 3-kinase catalytic subunit gamma isoform (Homo sapiens, UniProt P48736); experiment: Binding affinity to wild-type human partial length PIK3CG (S144 to A1102 residues) expressed in mammalian expression system by quantitative PCR based KINOMEscan assay
# [5] = molecular target: T1, Phosphatidylinositol 4,5-bisphosphate 3-kinase catalytic subunit alpha isoform; experiment: Binding affinity to wild-type human partial length PIK3CA (R108 to N1068 residues) expressed in mammalian expression system by quantitative PCR based KINOMEscan assay
# [6] = molecular target: PI3-kinase p110-alpha/p85-alpha (Homo sapiens) (UniProt P27986+P42336); experiment: Inhibition of Wortmannin covalent binding to N-terminal His-tagged recombinant human PI3K p110alpha/p85alpha Lys802 expressed in baculovirus expression system preincubated for 1 hr followed by Wortmannin addition and measured after 20 mins by SDS-PAGE based immunoblot assay
# [7] = Metabolic stability in mouse liver microsomes assessed as compound remaining after 30 mins; assay type: ADME, Microsome; conditions: read-out: Stability
# [8] = Metabolic stability in dog liver microsomes assessed as compound remaining after 30 mins; assay type: ADME, Canis lupus familiaris, Microsome; conditions: read-out: Stability
# [9] = Metabolic stability in rat liver microsomes assessed as compound remaining after 30 mins; assay type: ADME, Microsome; conditions: read-out: Stability
# [10] = Metabolic stability in human liver microsomes assessed as compound remaining after 30 mins; assay type: ADME, Microsome; conditions: read-out: Stability
# [11] = Intrinsic clearance in human hepatocytes assessed per 10^6 cells; assay type: ADME, cell-based, Hepatocyte; conditions: read-out: CLH
# [12] = Intrinsic clearance in rat hepatocytes assessed per 10^6 cells; assay type: ADME, cell-based, Hepatocyte; conditions: read-out: CLH
# [13] = Intrinsic clearance in dog hepatocytes assessed per 10^6 cells; assay type: ADME, cell-based, Canis lupus familiaris, Hepatocyte; conditions: read-out: CLH
# [14] = Intrinsic clearance in mouse hepatocytes assessed per 10^6 cells; assay type: ADME, cell-based, Hepatocyte; conditions: read-out: CLH
# [15] = Half-life clearance in human hepatocytes; assay type: ADME, cell-based, Hepatocyte
# [16] = Half-life in rat hepatocytes; assay type: ADME, cell-based, Hepatocyte
# [17] = Half-life in dog hepatocytes; assay type: ADME, cell-based, Canis lupus familiaris, Hepatocyte
# [18] = Half-life in mouse hepatocytes; assay type: ADME, cell-based, Hepatocyte
# [19] = Cmax in C57BL/6J mouse plasma at 50 mg/kg, po administered as single dose after 30 mins by LC-MS analysis; assay type: ADME, organism-based; design: dose 50 mg/kg, route oral
# [20] = Tmax in C57BL/6J mouse plasma at 50 mg/kg, po administered as single dose by LC-MS analysis; assay type: ADME, organism-based
# [21] = Terminal half-life in C57BL/6J mouse plasma at 50 mg/kg, po administered as single dose by LC-MS analysis; assay type: ADME, organism-based; conditions: read-out: beta t1/2 (converted)
# [22] = AUC (0 to 8 hrs) in C57BL/6J mouse plasma at 50 mg/kg, po administered as single dose by LC-MS analysis; assay type: ADME, organism-based; design: dose 50 mg/kg, time < 8 hr, route oral
# [23] = Clearance in C57BL/6J mouse plasma at 50 mg/kg, po administered as single dose by LC-MS analysis; assay type: ADME, organism-based
# [24] = Cmax in C57BL/6J mouse brain at 50 mg/kg, po administered as single dose after 30 mins by LC-MS analysis; assay type: ADME, organism-based; design: dose 50 mg/kg, route oral
# [25] = Tmax in C57BL/6J mouse brain at 50 mg/kg, po administered as single dose by LC-MS analysis; assay type: ADME, organism-based
# [26] = Terminal half-life in C57BL/6J mouse brain at 50 mg/kg, po administered as single dose by LC-MS analysis; assay type: ADME, organism-based; conditions: read-out: beta t1/2 (converted)
# [27] = AUC (0 to 8 hrs) in C57BL/6J mouse brain at 50 mg/kg, po administered as single dose by LC-MS analysis; assay type: ADME, organism-based; design: dose 50 mg/kg, time < 8 hr, route oral
# [28] = Cmax in C57BL/6J mouse thigh muscle at 50 mg/kg, po administered as single dose after 30 mins by LC-MS analysis; assay type: ADME, organism-based; design: dose 50 mg/kg, route oral
# [29] = Tmax in C57BL/6J mouse thigh muscle at 50 mg/kg, po administered as single dose by LC-MS analysis; assay type: ADME, organism-based
# [30] = Terminal half-life in C57BL/6J mouse thigh muscle at 50 mg/kg, po administered as single dose by LC-MS analysis; assay type: ADME, organism-based; conditions: read-out: beta t1/2 (converted)
# [31] = AUC (0 to 8 hrs) in C57BL/6J mouse thigh muscle at 50 mg/kg, po administered as single dose by LC-MS analysis; assay type: ADME, organism-based; design: dose 50 mg/kg, time < 8 hr, route oral
# [32] = Fraction unbound in rat brain; assay type: ADME, tissue-based
# Mus musculus [33] = experiment: In vivo inhibition of Class 1 PI3K/mTOR in C57BL/6J mouse assessed as increase in plasma glucose level at 50 mg/kg, po administered as single dose after 10 mins to 1 hr by colorimetric assay; assay type: functional, organism-based
# Mus musculus [34] = experiment: In vivo inhibition of Class 1 PI3K/mTOR in C57BL/6J mouse assessed as increase in plasma glucose level at 50 mg/kg, po administered as single dose after 2 hr by colorimetry based immunoassay; assay type: functional, organism-based
# [35] = Toxicity in po dosed male Wistar rat; assay type: organism-based; conditions: in vivo
# [36] = Toxicity in po dosed female Wistar rat; assay type: organism-based; conditions: in vivo
# [37] = AUC (0 to 8 hrs) at steady state in male Wistar rat at 1 mg/kg/day, po after 4 weeks; assay type: ADME, organism-based; design: dose 1 mg/kg/day, time < 8 hr, route oral; conditions: in vivo
# [38] = AUC (0 to 8 hrs) at steady state in female Wistar rat at 0.5 mg/kg, po after 4 weeks; assay type: ADME, organism-based; design: time < 8 hr, dose 0.5 mg/kg, route oral; conditions: in vivo
# [39] = Toxicity in po dosed male Beagle dog; assay type: organism-based, Canis lupus familiaris; conditions: in vivo
# [40] = Toxicity in po dosed female Beagle dog; assay type: organism-based, Canis lupus familiaris; conditions: in vivo
# [41] = AUClast at steady state in male Beagle dog at 1 mg/kg/day, po after 4 weeks; assay type: ADME, organism-based, Canis lupus familiaris; conditions: in vivo
# [42] = AUClast at steady state in female Beagle dog at 3 mg/kg/day, po after 4 weeks; assay type: ADME, organism-based, Canis lupus familiaris; conditions: in vivo
# OVCAR-3 = experiment: Antitumor activity against human OVCAR3 cells xenografted in BALB/c nude mouse assessed as reduction in tumor growth at 25 mg/kg, po administered once daily starting from 17 days post inoculation and measured thrice per week; assay type: functional, organism-based
# [43] = Toxicity in BALB/c nude mouse assessed as effect on body weight at 25 mg/kg, po administered once daily starting from 17 days post inoculation and measured after 20 to 40 days post inoculation; assay type: organism-based; conditions: in vivo
# Homo sapiens = species on record: Homo sapiens; experiment: Inhibition of Class 1 PI3K/mTOR in human SKOV3 cells assessed as reduction in Akt phosphorylation at Ser473 residue incubated for 1 hr by InCell Western assay; assay type: cell-based
# A2058 [44] = experiment: Inhibition of Class 1 PI3K/mTOR in human A2058 cells assessed as reduction in Akt phosphorylation incubated for 1 hr by InCell Western assay; assay type: cell-based
# A2058 [45] = experiment: Inhibition of Class 1 PI3K/mTOR in human A2058 cells assessed as reduction in GSK3 phosphorylation incubated for 1 hr by InCell Western assay; assay type: cell-based
# A2058 [46] = experiment: Inhibition of Class 1 PI3K/mTOR in human A2058 cells assessed as reduction in p70S6K phosphorylation incubated for 1 hr by InCell Western assay; assay type: cell-based
# A2058 [47] = experiment: Antiproliferative activity against human A2058 cells at 5 to 0.02 uM after 72 hrs by […] staining based assay; assay type: functional, cell-based
# SK-OV-3 = experiment: Antiproliferative activity against human SKOV3 cells at 5 to 0.02 uM after 72 hrs by […] staining based assay; assay type: functional, cell-based
# cells = conditions: Homo sapiens, A2058, 1 h
# Description: Inhibition of Class 1 PI3K/mTOR in human A2058 cells assessed as reduction in S6 phosphorylation at Ser235/236 residue incubated for 1 hr by InCell Western assay
# T1 sequence (P42336 whole entry, the tested form may be a part, canonical isoform): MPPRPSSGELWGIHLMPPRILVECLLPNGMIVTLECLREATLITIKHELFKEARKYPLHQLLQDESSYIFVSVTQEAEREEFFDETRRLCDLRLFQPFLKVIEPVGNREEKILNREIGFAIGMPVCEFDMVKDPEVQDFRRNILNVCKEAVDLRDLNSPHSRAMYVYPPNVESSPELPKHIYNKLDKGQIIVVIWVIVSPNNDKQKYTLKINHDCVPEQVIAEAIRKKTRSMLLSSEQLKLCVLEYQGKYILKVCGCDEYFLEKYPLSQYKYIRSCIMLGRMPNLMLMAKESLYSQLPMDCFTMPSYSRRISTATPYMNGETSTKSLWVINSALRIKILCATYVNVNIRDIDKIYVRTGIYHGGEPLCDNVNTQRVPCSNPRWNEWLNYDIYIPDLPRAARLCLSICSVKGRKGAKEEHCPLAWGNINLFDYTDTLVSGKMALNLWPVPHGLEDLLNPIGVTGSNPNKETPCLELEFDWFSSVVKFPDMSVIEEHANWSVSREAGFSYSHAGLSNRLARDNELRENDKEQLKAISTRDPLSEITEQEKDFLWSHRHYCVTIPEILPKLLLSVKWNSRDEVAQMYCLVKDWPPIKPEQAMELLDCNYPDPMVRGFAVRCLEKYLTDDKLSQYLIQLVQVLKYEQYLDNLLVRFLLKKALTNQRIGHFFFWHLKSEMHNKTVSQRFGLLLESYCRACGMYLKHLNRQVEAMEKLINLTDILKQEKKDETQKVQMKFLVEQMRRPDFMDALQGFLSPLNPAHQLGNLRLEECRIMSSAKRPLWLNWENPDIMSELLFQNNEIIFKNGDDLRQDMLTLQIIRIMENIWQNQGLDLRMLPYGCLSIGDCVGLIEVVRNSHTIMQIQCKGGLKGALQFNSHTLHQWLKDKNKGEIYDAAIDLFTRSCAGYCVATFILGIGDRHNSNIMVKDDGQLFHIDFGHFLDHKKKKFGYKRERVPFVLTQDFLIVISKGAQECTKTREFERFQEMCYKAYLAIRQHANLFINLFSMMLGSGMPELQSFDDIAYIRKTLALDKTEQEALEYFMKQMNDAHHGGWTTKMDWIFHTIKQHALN
# Sequence of Phosphatidylinositol 4,5-bisphosphate 3-kinase catalytic subunit gamma isoform (P48736 whole entry, the tested form may be a part, canonical isoform): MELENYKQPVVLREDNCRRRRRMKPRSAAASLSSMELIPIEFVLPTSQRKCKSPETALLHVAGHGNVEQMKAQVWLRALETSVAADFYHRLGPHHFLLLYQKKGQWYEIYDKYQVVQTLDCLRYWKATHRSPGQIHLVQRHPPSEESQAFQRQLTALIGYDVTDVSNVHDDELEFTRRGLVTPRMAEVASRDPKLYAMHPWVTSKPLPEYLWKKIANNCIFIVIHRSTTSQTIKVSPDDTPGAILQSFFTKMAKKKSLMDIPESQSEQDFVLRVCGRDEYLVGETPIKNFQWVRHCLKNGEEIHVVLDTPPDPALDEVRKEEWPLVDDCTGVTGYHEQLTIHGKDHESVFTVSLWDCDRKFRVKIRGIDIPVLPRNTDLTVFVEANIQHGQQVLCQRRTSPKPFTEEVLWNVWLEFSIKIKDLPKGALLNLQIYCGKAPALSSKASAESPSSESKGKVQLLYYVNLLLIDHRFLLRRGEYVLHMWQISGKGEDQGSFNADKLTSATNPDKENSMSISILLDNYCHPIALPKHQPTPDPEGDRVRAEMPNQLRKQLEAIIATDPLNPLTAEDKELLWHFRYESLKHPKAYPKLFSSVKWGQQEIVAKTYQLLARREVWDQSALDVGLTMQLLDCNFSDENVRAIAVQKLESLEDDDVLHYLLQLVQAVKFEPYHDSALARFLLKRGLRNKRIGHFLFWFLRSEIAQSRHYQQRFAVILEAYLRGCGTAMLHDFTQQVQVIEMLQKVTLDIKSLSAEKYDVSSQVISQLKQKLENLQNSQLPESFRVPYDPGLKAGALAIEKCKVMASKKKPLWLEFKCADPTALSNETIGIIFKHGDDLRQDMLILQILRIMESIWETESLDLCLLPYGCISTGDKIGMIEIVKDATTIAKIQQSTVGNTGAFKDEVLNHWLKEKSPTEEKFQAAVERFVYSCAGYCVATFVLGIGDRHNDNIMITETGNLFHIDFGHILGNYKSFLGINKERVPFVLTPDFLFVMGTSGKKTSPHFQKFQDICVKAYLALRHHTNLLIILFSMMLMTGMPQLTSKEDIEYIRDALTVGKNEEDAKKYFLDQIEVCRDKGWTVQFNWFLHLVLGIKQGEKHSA
structure (smiles),measurement,setting,value
C[C@H]1COCCN1c1nc(-c2cnc(N)cc2C(F)F)nc(N2CCOCC2)n1,pIC50,[1],7.21
same,pKi,[2],7.95
same,pKi,[3],8.13
same,pKd,[4],8.00
same,pKd,[5],9.08
same,inhibition,[6],Active
same,remaining at 0.5 h,[7],73.2%
same,remaining at 0.5 h,[8],97.4%
same,remaining at 0.5 h,[9],106%
same,remaining at 0.5 h,[10],81.5%
same,hepatocyte CLint,[11],6 µL/min/1e6 cells
same,hepatocyte CLint,[12],7 µL/min/1e6 cells
same,hepatocyte CLint,[13],10 µL/min/1e6 cells
same,hepatocyte CLint,[14],11 µL/min/1e6 cells
same,half-life,[15],4.17 h
same,half-life,[16],3.2 h
same,half-life,[17],2.37 h
same,half-life,[18],2.37 h
same,Cmax,[19],7.8 µg/mL
same,Tmax,[20],0.5 h
same,half-life,[21],4.7 h
same,AUC(0-t) at 8 h,[22],27.9 µg·h/mL
same,CL/F,[23],1.26 L/h/kg
same,Cmax,[24],12.6 µg/mL
same,Tmax,[25],0.5 h
same,half-life,[26],4.8 h
same,AUC(0-t) at 8 h,[27],46.5 µg·h/mL
same,Cmax,[28],11.9 µg/mL
same,Tmax,[29],0.5 h
same,half-life,[30],3.5 h
same,AUC(0-t) at 8 h,[31],39.2 µg·h/mL
same,fraction unbound,[32],0.08
same,inhibition,Mus musculus [33],Active
same,inhibition,Mus musculus [34],Active
same,NOAEL,[35],1 mg/kg/day
same,NOAEL,[36],0.5 mg/kg
same,AUC at 8 h,[37],0.335 µg·h/mL
same,AUC at 8 h,[38],0.599 µg·h/mL
same,NOAEL,[39],1 mg/kg/day
same,NOAEL,[40],3 mg/kg/day
same,AUC(0-t) at 672 h,[41],0.127 µg·h/mL
same,AUC(0-t) at 672 h,[42],1.07 µg·h/mL
same,Activity,OVCAR-3,Active
same,Activity,[43],Non-Toxic
same,inhibition,Homo sapiens,Active
same,inhibition,A2058 [44],Active
same,inhibition,A2058 [45],Active
same,inhibition,A2058 [46],Active
same,Activity,A2058 [47],Active
same,Activity,SK-OV-3,Active
same,pIC50,cells,7.21
C[C@@H]1COC[C@H](C)N1c1nc(-c2cnc(N)cc2C(F)(F)F)nc(N2[C@H](C)COC[C@@H]2C)n1,pIC50,[1],6.25
same,pKi,[2],7.50
same,pKi,[3],7.40
same,pIC50,cells,6.36
C[C@@H]1COC[C@H](C)N1c1nc(-c2cnc(N)cc2C(F)(F)F)nc(N2CCOCC2)n1,pIC50,[1],6.91
same,pKi,[2],7.56
same,pKi,[3],7.71
same,pIC50,cells,6.87
